The text below walks through data of patent publication US6960430B2, “Screening methods for compounds useful in the regulation of cell proliferation” (priority 1999, dated 2005).

For one experiment, the system named is MVH cells. The experiment is described as follows: Apoptosis by Hoechst-33342 staining in MVH cells (Rat-1 variant constitutively expressing Hsp72). Particulars: heat shock 45° C., 50 min, 0.5 mM, apoptosis assessed 7 hr after treatment. It is filed as cell-based. The method, then: The level of apoptosis was measured by fluorescent microscopy using Hoechst-33342 DNA-specific dye (10 μM). Shrinked cells with condensed or fragmented nuclei were counted as apoptotic. Cells were washed twice with PBS on a dish, aspirated and lysed by thoroughly scraping with a plastic scraper in 200 μL lysis buffer per a 35 mm dish (40 mM HEPES, pH 7.5; 50 mM KCl; […]; 2 mM DTT, 1 mM Na3VO4; 50 mM β-glycerophosphate; 50 mM NaF; 5 mM EDTA; 5 mM EGTA; 1 mM PMSF; 1 mM benzamedine; 5 μg/ml of each: leupeptine, pepstatine A, aprotenin). The lysates were clarified by centrifugation in a microcentrifuge at 15,000 rpm for 5 min. Total protein concentration was measured in the supernatants after which they were diluted with the lysis buffer to achieve equivalent concentration in all samples. All procedures were performed at 4° C.

Experiment [1] concerns JNK phosphatase(s). The conditions noted are these: various cell lines; cited from earlier work.
The subject of experiment [2] is JNK phosphatase(s). The experiment can be described thus: JNK inactivation (dephosphorylation) after heat shock in Hsp72-expressing MVH cells, immunoblot with antibody to phospho-JNK. It is filed as cell-based, rat. Particulars: for JNK inactivation / JNK dephosphorylation in heat-shocked MVH cells: 0.5 mM added 1 hr after heat shock (45° C., 50 min), recovery at 37° C., JNK1 by phospho-JNK antibody; for JNK activity, drug alone: unstressed cells, vanadate alone. From the text: Another assay for JNK activity allowed us to measure separately activity of two major isoforms (46 kDa JNK1 and 54 kDa JNK2) using JNK antibody specific to activated (phosphorylated) form of JNK (Promega, Wis.). For immunoblot analysis samples were subjected to Western immunoblotting. Secondary antibodies conjugated with peroxidase were visualized with ECL substrates (Amersham, Arlington Heights, Ill.) and resulting films were quantified by densitometry. Measurement of JNK phosphatase activity. In vivo INK phosphatase activity was measured as described earlier (Meriin, A. B., et al., 1999, Mol. Cell Biol. (In press)). […] […] The rate of JNK dephosphorylation was assessed under these conditions by immunoblotting with antibody which recognizes the activated (phosphorylated) form of JNK specifically.

In experiment [3] the test system is tetracycline-regulated transactivator protein tTA. The experiment can be described thus: Hsp72 expression from adenovirus vector controlled by tetracycline-regulated transactivator in Rat-1 cells, immunoblot. The conditions noted are these: 20 nM. It is filed as cell-based. The text has this: Recombinant adenovirus vector expressing Hsp72 (ADTR5Hsp72-GFP, curtesy of Dr. Mosser, Biotechnology Research Institute, Montreal) was constructed by cloning a dicistronic transcription unit encoding Hsp72 and Aequorea Victoria green fluorescent protein gene, separated by the encephalomyocarditis virus internal ribosome entry site from pTR-DC/Hsp70-GFP (Mosser et al., 1997a, Mol. Cell Biol, 17: 5317-5327; Mosser et al., 1997b, Biotechniques 22: 150-161) into an adenovirus transfer vector. Expression of this transcription unit is controlled by the tetracycline-regulated transactivator protein tTA (Mosser et al., 1997b, Biotechniques 22: 150-161) which we expressed from a separate recombinant adenovirus. Recombinant adenoviruses were generated by standard techniques as detailed by (Jani et al., 1997, J. Virol. Methods 64: 111-124). Viruses were used at stock concentration of 10^10 pfu/ml. […] Two-ml cell cultures grown in liquid medium in 35 mm dishes were infected in the presence or the absence of anhydrotetracycline with 3·10^7 pfu of each virus, sufficient for infection of almost 100% cells, and additional 10^7 pfu of each virus was added on days three and seven. After 24 hours incubation with viruses, cells were washed with PBS and placed in fresh media with or without anhydrotetracycline. […]

“Also recorded” adds a separate entry of the source.

`[O]=[V]([O-])([O-])[O-]` [ortho-vanadate]: the “heat-induced apoptosis of MVH cells (thermoresistance, anti-apoptotic effect of Hsp72)” value with MVH cells (listed as Ortho-vanadate) is on record as “abolishes thermoresistance”; in the experiment on MVH cells (listed as vanadate) it was “completely reversed anti-apoptotic effect of Hsp72; also recorded: dramatically increased”. Also, the “suppression of JNK phosphatase(s)” value in the experiment with JNK phosphatase(s) [1] is “effectively suppresses JNK phosphatase(s)”. Moreover, the “JNK inactivation / JNK dephosphorylation in heat-shocked MVH cells” value with JNK phosphatase(s) [2] is “strongly inhibited JNK inactivation”; with JNK phosphatase(s) [2] (listed as Ortho-vanadate) it was “inhibits JNK dephosphorylation”. Besides, the “JNK activity, drug alone” value in the experiment on JNK phosphatase(s) [2] (listed as Ortho-vanadate) is on record as “no significant effect on JNK activity”; in the experiment on JNK phosphatase(s) [2] (listed as vanadate), “affected neither JNK activity”.
`Cc1c2c(c(O)c3c(O)cccc13)C(=O)[C@]1(O)C(=O)C(C(N)=O)=C(O)[C@@H](N(C)C)[C@@H]1C2` [anhydrotetracycline]: the “Hsp72 expression after infection with both adenoviruses” value in experiment [3] was “expression of Hsp72 in the absence of tetracycline but not in the presence of 20 nM of anhydrotetracycline”.
